The source of these data is article PMC7532674, “Synthesis and preliminary studies of ^11C-labeled tetrahydro-1,7-naphthyridine-2-carboxamides for PET imaging of metabotropic glutamate receptor 2” (Theranostics, 2020).

Series [1] concerns mGlu1, mGlu4, mGlu5, mGlu6 and mGlu8. As to the kind of experiment: Functional (agonist and antagonist) assays towards mGlu receptors. In kind it is cell-based. Conditions: mGlu1, 4, 5, 6, 8.
In series [2] the test system is major CNS targets. As to the kind of experiment: CNS panel binding selectivity assays (NIMH PDSP).
Series [3] concerns the target T1, hERG (Homo sapiens, UniProt Q12809).
T1 construct: NIMH PDSP
As to the kind of experiment: hERG safety assay. The class given is binding. On the technique in general: hERG is a cardiac potassium channel; its block is linked to QT prolongation.

Series [4] has as its target T2, human mGlu3 (Homo sapiens, UniProt Q14832).
T2 construct: expressed in transfected cells
Put plainly: Human mGlu3 GIRK thallium flux assay. In kind it is cell-based. To be noted: HEK293 cells, triplicate assays (14g duplicate). Here is the method: (§1) Cell Line Generation and Thallium Flux Assays. The general procedure for the preparation of human mGlu2 and mGlu3 was described previously, [56] with minor modifications in this work. The cloning sites were NheI/NotI for both receptors. HEK GIRK cells, generously provided by Lily Jan (University of California San Francisco, San Francisco, CA), were transfected with 24 μg of DNA using Fugene6 (Promega), stable transfectants were selected with 1 μg/mL puromycin dihydrochloride (Sigma-Aldrich, St. Louis, MO), and polyclonal human mGlu2 GIRK and mGlu3 GIRK cell lines were established. Cells were maintained following selection in 45% DMEM, 45% Ham's F12, 10% FBS, 100 units/mL penicillin/streptomycin, 20 mM HEPES, pH 7.3, 1 mM sodium pyruvate, 2 mM glutamine, 700 μg/mL G418 (Mediatech, Inc., Herndon, VA), and […] puromycin (growth media) at 37 °C in the presence of 5% CO2. All cell culture reagents were purchased from Invitrogen Corp. (Carlsbad, CA) unless otherwise noted.
(§2) Human mGlu2 and mGlu3 Thallium Flux in Vitro Assays. Potencies of these NAMs at both mGlu2 and mGlu3 were investigated by thallium flux through GIRK channels, which was disclosed in detail as well as described in our previous work. In particular, cells were plated into 384-well, black-walled, clear-bottomed poly(D-lysine_-coated plates at a density of 15 000 cells per well in 20 μL of DMEM containing 10% dialyzed FBS, 20 mM HEPES, and 100 units/mL penicillin/streptomycin (assay media). Plated cells were incubated overnight at 37 °C in the presence of 5% CO2. The next day, the medium was exchanged from the cells to assay buffer [Hanks' balanced salt solution (Invitrogen) containing 20 mM HEPES, pH 7.3] using an ELX405 microplate washer (BioTek), leaving 20 μL per well, followed by the addition of 20 μL per well of FluoZin2-AM (330 nM final concentration) indicator dye (Invitrogen; prepared as a stock in DMSO and mixed in a 1:1 ratio with Pluronic acid F-127) in assay buffer. Cells were incubated for 1 h at room temperature, and the dye was exchanged to assay buffer using an ELX405, leaving 20 μL per well. For concentration-response curve experiments, compounds were serially diluted 1:3 into 10 point concentration-response curves and were transferred to daughter plates using an Echo acoustic plate reformatter (Labcyte, Sunnyvale, CA). Test compounds were diluted to 2 times their final desired concentration in assay buffer (0.3% DMSO final concentration). Agonists were diluted in thallium buffer [125 mM sodium bicarbonate (added fresh the morning of the experiment), 1 mM magnesium sulfate, 1.8 mM calcium sulfate, 5 mM glucose, 12 mM thallium sulfate, and 10 mM HEPES, pH 7.3] at 5 times the final concentration to be assayed. Cell plates and compound plates were loaded onto a kinetic imaging plate reader (FDSS 6000 or 7000; Hamamatsu Corporation, Bridgewater, NJ). Appropriate baseline readings were taken (10 images at 1 Hz; excitation, 470 ± 20 nm; emission, 540 ± 30 nm), and test compounds were added in a 20 μL volume and incubated for approximately 1 h at room temperature before the addition of 10 μL of thallium buffer with or without an EC80 concentration of the agonist glutamate for affinity evaluation experiments or with a full concentration-response of glutamate for Schild analysis experiments. After the addition of agonist, data were collected for approximately an additional 2.5 min. Data were analyzed using Excel (Microsoft Corp, Redmond, WA). The slope of the fluorescence increase beginning 5 s after thallium/agonist addition and ending 15 s after thallium/agonist addition was calculated, corrected to vehicle and maximal agonist control slope values, and plotted using either XLfit (ID Business Solutions Ltd.) or Prism software (GraphPad Software, San Diego, CA) to generate concentration-response curves. Potencies were calculated from fits using a four-point parameter logistic equation.

Series [5] has as its target T3, human mGlu2 (Homo sapiens, UniProt Q14416).
T3 construct: expressed in transfected cells
As to the kind of experiment: Human mGlu2 GIRK thallium flux assay. The class given is cell-based. To be noted: HEK293 cells, EC80 glutamate, triplicate assays (14g duplicate). Here is the method:
as §1, §2

The nature of series [6]: Whole body ex vivo biodistribution in mice. Here is the method: Each mouse was treated with a bolus injection of [^11C]14b (50 μCi / 150 μL) via the tail vein. Three mice were sacrificed by cervical dislocation at each time point (1, 5, 15, 30 and 60 min) after injection. Major organs, including heart, lungs, liver, pancreas, spleen, kidneys, stomach (including contents), small intestine (including contents), large intestine (including contents), testes, muscle, whole brain and blood samples were quickly removed and weighed. The radioactivity remained in these organs was measured by a 2480 Wizard autogamma counter (PerkinElmer, USA). The results are expressed as the percentage of injected dose per gram of wet tissue (%ID/g) or standardized uptake value (SUV). All radioactivity measurements were decay-corrected to the time point of PET tracer injection based on half-life of ^11C.

For series [7], the target named is T4, mGlu2 (Rattus norvegicus, UniProt P31421). Put plainly: In vitro autoradiography in rat brain sections. The class given is binding. Further details: from tissue; host or cells: Sprague-Dawley rat brain sections. Here is the method: Sagittal rat brain slices were prepared into 20 μm sections with a cryostat (HM560; Carl Zeiss, Oberkochen, Germany), mounted on air plasma spray-coated glass slides, and stored at -80 °C before used for experiments. The sections were preincubated for 15 min in a glass tank containing 200 mL of Tris·HCl buffer (50 mM, pH 7.4) consisting of 2 mM of MgCl2 and 1.2 mM of CaCl2 at room temperature. After preincubation, the sections were incubated in a fresh buffer containing [^11C]14a or [^11C]14b (250 µCi in 200 mL buffer; molar activity 2.7 Ci/µmol of [^11C]14a and 2.5 Ci/µmol of [^11C]14b, respectively) in the glass tank for 30 min at room temperature. For blocking studies, non-radioactive 14a or 14b (10 μM) and QCA (10 μM) were chosen to determine the specificity of radiotracers for binding mGlu2. Six serial brain sections were used for each conditions. After incubation, brain sections were washed with cold buffer (3 × 5 min), immersed in cold distilled water, and then dried with cold air. The sections were placed in contact with imaging plates (BAS-MS2025, FUJIFILM, Tokyo, Japan). Autoradiograms were obtained and photostimulated luminescence (PSL) values in the ROIs were measured using a Bio-Imaging Analyzer System (BAS5000, FUJIFILM).

A short description of series [8]: Radiometabolite analysis in plasma and brain. Conditions: SD rats. The class given is in vivo, Sprague-Dawley rats. Here is the method:
Sprague-Dawley rats were sacrificed by decapitation under anesthesia at 5 and 20 min (n = 2 each time point) after the intravenous injection of [^11C]14b. Blood and whole brain samples were quickly harvested. Plasma was separated from the blood samples via 1) centrifuging at 15,000 g for 2 min at 4 °C, 2) mixing 0.5 mL of acetonitrile with 0.5 mL of supernatant, and then 3) vortexing for 15 s and centrifuging again at 15,000 g for 2 min for deproteinization. In terms of brain metabolite analysis, the removed rat brain was quickly placed on the ice, homogenized in an ice-cooled CH3CN/H2O (v/v, 1/1, 1 mL) solution, and then centrifuged at 15,000 g for 2 min at 4 °C. The supernatant was collected, whose radioactivity was >90% based on the total radioactivity in the brain homogenate. An aliquot of the supernatant (100 μL) obtained from the plasma or brain homogenate was injected into the radio-HPLC system and analyzed using a Capcell Pak UG80 C18 column (4.6 mm ID × 250 mm) in a mobile phase of CH3CN/H2O + 0.1% Et3N (v/v, 45/55) at a flow rate of 1.0 mL/min. The percentage of [^11C]14b to total radioactivity (corrected for decay) on the HPLC charts was calculated as ([peak area for [^11C]14b]/[total peak area]) × 100.

Series [9] has as its target T4, mGlu2. As to the kind of experiment: Dynamic PET imaging in rat brain. More on the design: from tissue; host or cells: brain of living SD rats. The class given is in vivo, SD rats. On the procedure: As we previously reported, PET scans were carried out by an Inveon PET scanner (Siemens Medical Solutions, Knoxville, TN, USA). During the scan, SD rats were anesthetized by oxygen mixed with 1-2% (v/v) isoflurane and kept body temperature at […] by a commercially available circulation system (T/Pump TP401, Gaymar Industries, Orchard Park, NY). A 24-gauge catheter was inserted into the tail vein to facilitate a bolus injection. The radiotracer [^11C]14a or [^11C]14b (ca. 1 mCi / 150-200 μL) was injected into the rat via the preinstalled catheter, and the dynamic acquisition of PET signals in rat brain was started at the same time and lasted for 60 min in 3D list mode. For pretreatment studies, 14a (1 mg/kg for [^11C]14a for self-blocking study in Figure S2; 3 mg/kg for [^11C]14b for blocking study in Figure S12C) or 14b (1 mg/kg for [^11C]14b for self-blocking study in Figure S12B), formulated in 300 μL of saline containing 10% ethanol and 5% Tween 80, was injected at 30 min via the tail vein catheter prior to the injection of [^11C]14a or [^11C]14b. The dynamic emission data were reconstructed by filtered back projection using Hanning's filter with a Nyquist cutoff of 0.5 cycle/pixel into 33 frames (10 s × twelve frames, 20 s × three frames, 30 s × three frames, 60 s × three frames, 150 s × three frames, and 300 s × nine frames). The TACs of [^11C]14a or [^11C]14b were analyzed from volumes of interest in the striatum, hippocampus, cortex, thalamus, pons and cerebellum normalized to a rat brain MRI template using PMOD software (version 3.4; PMOD technology, Zurich, Switzerland). The radioactivity was decay-corrected to the injection time and expressed as the standardized uptake value (SUV) which equals to (radioactivity per milliliter of tissue per injected radioactivity) × (gram of body weight). To obtain non-displaceable binding potential (BPND), simplified reference tissue model (SRTM), [54] was carried out on the basis of kinetic analysis using PMOD software. We acquired BP-parametric images using kinetic modeling without masking. Respective TACs in receptor-rich or -poor region were loaded for production of BP-map with default setting. Representative parametric images scaled with BPND were reconstructed by PMOD software using TACs in mGlu2-enriched and reference regions. Pons was selected as the reference region for mGlu2 (the lowest and consistent brain uptake and washout kinetics between baseline and blocking conditions). It should be noted that while there is a low-level expression of mGlu2 in the pons, it is not without existence. A reference region should be a region devoid of the target, but with similar tracer transport or diffusion to the other regions of interest with expression of the target. Therefore, there are some limitations when using pons as the reference region. For example, the partial volume effect in PET likely leads to spillover of activity from nearby higher uptake regions into the pons, artificially increasing the time-activity curve in the pons.

For series [10] the following is noted: cited from earlier work.
In series [11] the test system is mGlu2. Conditions: cited from earlier work.
The mark [12] stands for this setting: SRTM, pons as reference, baseline.

Molecules are shown by their SMILES. Some results are limits rather than exact numbers.

T4 sequence (P31421 19-872): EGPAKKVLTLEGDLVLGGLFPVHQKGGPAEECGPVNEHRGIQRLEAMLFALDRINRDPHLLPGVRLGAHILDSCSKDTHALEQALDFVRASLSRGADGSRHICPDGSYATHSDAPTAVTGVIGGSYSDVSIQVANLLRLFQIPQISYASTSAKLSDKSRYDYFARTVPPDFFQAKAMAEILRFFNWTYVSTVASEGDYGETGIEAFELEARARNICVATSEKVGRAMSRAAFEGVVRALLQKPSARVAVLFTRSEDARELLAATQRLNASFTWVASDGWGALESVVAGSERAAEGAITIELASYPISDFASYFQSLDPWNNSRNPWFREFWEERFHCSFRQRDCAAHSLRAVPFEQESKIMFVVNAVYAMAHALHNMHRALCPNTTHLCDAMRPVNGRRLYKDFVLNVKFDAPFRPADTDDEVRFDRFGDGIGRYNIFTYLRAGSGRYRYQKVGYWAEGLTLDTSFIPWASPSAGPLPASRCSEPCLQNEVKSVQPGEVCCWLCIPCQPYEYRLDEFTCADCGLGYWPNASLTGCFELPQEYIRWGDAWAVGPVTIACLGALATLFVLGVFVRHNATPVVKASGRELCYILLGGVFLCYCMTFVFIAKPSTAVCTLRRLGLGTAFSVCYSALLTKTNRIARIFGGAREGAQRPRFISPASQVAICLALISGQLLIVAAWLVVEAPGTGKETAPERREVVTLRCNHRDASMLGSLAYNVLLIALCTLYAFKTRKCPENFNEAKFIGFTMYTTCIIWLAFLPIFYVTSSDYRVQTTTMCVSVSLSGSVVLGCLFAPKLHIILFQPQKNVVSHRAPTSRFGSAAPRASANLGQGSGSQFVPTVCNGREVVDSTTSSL
T3 sequence (Q14416 19-872): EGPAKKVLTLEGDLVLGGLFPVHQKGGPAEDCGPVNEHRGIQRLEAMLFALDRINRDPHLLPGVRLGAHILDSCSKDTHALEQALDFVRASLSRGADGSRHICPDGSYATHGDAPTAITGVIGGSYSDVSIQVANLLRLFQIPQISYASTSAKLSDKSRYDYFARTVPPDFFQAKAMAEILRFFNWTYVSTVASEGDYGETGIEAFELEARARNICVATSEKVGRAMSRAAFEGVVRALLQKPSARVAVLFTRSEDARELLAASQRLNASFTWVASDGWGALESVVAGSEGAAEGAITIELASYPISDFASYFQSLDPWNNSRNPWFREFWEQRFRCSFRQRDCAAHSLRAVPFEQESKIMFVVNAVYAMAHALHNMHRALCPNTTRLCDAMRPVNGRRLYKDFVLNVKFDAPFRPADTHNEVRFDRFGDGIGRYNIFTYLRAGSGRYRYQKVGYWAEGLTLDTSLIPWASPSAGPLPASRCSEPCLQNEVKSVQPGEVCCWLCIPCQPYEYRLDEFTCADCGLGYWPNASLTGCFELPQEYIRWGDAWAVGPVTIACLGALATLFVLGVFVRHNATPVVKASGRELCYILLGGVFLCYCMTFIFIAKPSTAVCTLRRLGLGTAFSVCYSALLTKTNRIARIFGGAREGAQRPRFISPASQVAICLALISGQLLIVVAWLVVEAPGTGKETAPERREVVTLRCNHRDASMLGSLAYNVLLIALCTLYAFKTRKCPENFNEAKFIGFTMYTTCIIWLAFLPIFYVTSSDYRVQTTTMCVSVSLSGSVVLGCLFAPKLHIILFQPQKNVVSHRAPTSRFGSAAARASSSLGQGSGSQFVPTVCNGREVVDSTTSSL
T1 sequence (Q12809 whole entry): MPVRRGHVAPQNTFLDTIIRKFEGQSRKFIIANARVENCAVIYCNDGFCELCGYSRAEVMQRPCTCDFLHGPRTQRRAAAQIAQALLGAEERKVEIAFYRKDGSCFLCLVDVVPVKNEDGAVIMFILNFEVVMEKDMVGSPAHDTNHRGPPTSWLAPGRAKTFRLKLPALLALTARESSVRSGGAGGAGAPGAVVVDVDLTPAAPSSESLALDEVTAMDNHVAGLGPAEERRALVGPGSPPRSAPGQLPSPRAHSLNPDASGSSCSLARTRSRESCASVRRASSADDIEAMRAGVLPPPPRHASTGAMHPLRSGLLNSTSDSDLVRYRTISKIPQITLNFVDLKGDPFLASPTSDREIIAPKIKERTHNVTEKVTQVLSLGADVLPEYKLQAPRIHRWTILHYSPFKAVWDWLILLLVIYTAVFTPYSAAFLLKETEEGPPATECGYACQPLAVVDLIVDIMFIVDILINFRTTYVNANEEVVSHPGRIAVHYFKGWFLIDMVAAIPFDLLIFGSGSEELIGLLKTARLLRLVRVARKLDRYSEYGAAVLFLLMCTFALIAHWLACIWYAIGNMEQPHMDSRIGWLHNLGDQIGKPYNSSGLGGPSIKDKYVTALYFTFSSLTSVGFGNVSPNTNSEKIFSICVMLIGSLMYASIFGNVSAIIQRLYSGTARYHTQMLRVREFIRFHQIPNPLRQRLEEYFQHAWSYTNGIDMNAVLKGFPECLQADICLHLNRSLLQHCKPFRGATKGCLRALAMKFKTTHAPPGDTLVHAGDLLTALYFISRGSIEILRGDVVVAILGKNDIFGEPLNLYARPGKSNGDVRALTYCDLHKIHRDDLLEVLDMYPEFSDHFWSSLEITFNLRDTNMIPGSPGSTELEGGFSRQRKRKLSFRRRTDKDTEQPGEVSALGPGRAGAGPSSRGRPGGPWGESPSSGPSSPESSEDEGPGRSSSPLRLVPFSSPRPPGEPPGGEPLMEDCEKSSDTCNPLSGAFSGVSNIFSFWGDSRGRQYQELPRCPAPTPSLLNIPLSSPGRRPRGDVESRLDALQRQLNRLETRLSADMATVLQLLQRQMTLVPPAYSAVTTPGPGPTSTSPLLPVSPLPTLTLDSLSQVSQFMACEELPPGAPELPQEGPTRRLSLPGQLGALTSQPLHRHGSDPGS
T2 sequence (Q14832 23-879): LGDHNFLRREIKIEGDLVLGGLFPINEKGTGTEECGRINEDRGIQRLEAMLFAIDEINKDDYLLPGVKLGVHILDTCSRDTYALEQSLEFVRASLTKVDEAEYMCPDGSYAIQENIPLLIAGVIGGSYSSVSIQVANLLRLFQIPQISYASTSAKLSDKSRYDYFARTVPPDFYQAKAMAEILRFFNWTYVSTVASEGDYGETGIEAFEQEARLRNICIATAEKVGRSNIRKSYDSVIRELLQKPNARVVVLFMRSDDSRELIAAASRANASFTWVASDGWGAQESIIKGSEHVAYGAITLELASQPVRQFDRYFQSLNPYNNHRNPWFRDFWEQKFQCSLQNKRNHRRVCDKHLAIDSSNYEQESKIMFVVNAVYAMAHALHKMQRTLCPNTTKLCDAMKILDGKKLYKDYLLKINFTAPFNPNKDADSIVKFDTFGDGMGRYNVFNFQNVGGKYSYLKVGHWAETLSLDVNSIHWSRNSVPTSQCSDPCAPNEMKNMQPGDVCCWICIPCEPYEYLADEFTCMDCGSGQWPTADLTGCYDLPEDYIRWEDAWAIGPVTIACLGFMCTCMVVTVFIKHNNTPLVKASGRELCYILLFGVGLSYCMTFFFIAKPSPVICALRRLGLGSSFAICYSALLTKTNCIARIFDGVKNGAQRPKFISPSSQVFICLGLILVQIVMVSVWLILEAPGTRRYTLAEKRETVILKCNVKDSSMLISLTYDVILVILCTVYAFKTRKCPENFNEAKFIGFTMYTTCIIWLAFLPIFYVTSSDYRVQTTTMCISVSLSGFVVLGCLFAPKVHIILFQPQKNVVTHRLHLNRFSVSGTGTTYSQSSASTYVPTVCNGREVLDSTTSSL

What is called IC50 is the concentration that gives 50% inhibition. Consider `COc1cc(CN2CCc3c(-c4ccc(F)cc4F)cc(C(N)=O)nc3C2)ccn1` [14b, 4-(2,4-difluorophenyl)-7-((2-methoxypyridin-4-yl)methyl)-5,6,7,8-tetrahydro-1,7-naphthyridine-2-carboxamide], for which the “Interaction with related mGlu receptor family” value in series [1] is reported as “no substantial interaction”. Besides, the Off-target binding result in series [2] (10 μM compound, n = 4) is “No significant off-target binding (>50%)”. In addition, the “Response with other major brain targets” value in series [2] (comprehensive CNS panel, NIMH PDSP) is recorded as “no significant response”. Further, the “Activity in hERG safety assay” value in series [3] was “no activity”. Moreover, the results for the IC50 in series [4] and in series [5] were over 10 µM and 24 nM, respectively.
On to `[11CH3]Oc1cc(CN2CCc3c(-c4ccc(F)cc4F)cc(C(N)=O)nc3C2)ccn1` [[^11C]14b, 4-(2,4-difluorophenyl)-7-((2-(methoxy-^11C)pyridine-4-yl)methyl)-5,6,7,8-tetrahydro-1,7-naphthyridine-2-carboxamide], for which, in [6], the “Ratio of %ID/g(1min/60min) in blood” value is over 3.5. Besides, the Brain uptake entry in [6] (5 min post injection) is given as “ca. 3.6 %ID/g”. Besides, the “Radioactivity in heart, lungs, liver, pancreas, kidneys and small intestine” value in series [6] (within initial 1 min) is on record as over 4 %ID/g. Further, in series [7] (autoradiography, baseline), the “Ratio of cerebellum to pons” value amounted to 1.78, the “Ratio of cerebral cortex to pons” value worked out at 2.61, the “Ratio of hippocampus to pons” value was found to be 2.00 and the “Ratio of striatum to pons” value was 2.79. Moreover, the “Decrease of region-to-pons ratios under blocking” value in [7] (preincubated with unlabeled QCA, 14b or 14a at 10 µM) is listed as 45-69%. Moreover, the “Unchanged fraction in plasma” value in [8] (5 min post injection) was 77%. For the same compound, in [8] (20 min post injection), the “Unchanged fraction in brain” value is over 99% and the “Unchanged fraction in plasma” value turned out to be 21%. Also, the “Time of peak radioactivity in brain regions” value in series [9] (SD rats, i.v.) is at most 3 min. Further, in series [9] (setting [12]), the BPND in cerebellum is given as 0.12; the “BPND in striatum and cingulate cortex” value turned out to be 0.72. Further, the “Reduction of BPND” value in series [9] (pretreatment with 14a, 3 mg/kg i.v. 30 min before) is recorded as 48-90%. For the same compound, in series [9] (pretreatment with 14b, 1 mg/kg i.v. 30 min before), the “Reduction of BPND” value is 41-88%.
For the compound `[11CH3]Oc1ccc(-c2cc(C(N)=O)nc3cc(CN4C(=O)CCC4=O)ccc23)c(F)c1` [[^11C]QCA, 7-((2,5-Dioxopyrrolidin-1-yl)methyl)-4-(2-fluoro-4-[^11C]methoxyphenyl) quinoline-2-carboxamide], in series [10], the “Brain uptake, peak value” was ~ 0.3 SUV. The IC50 in series [11] is 45 nM.
